Test results as given in patent US7737155B2, “Nitrogen-containing heterocyclic compounds and methods of use thereof” (Schering Corporation, priority 2005, dated 2010).

Target: recombinant human nicotinic acid receptor (NAR) (Homo sapiens, UniProt Q8TDS4)
Assay: Nicotinic Acid Receptor Assay: inhibition of forskolin-stimulated cAMP accumulation in CHO cells (MesoScale Discovery cAMP kit)
Type: cell-based
Settings: CHO cells expressing recombinant human NAR; forskolin-stimulated cAMP; read-out: NA EC50 camp
Protocol: The nicotinic acid receptor agonist activity of the inventive compounds was determined by following the inhibition of forskolin-stimulated cAMP accumulation in cells using the MesoScale Discovery cAMP detection kit following the manufacture's protocol. Briefly, Chinese Hamster Ovary (CHO) cells expressing recombinant human nicotinic acid receptor (NAR) were harvested enzymatically, washed 1× in phosphate buffered saline (PBS) and resuspended in PBS containing 0.5 mM IBMX at 3×10^6 cells/mL. Ten μL of cell suspension was added to each well of a 384-well plate which contained 10 μL of test compounds. Test compounds were diluted with PBS containing 6 μM of forskolin. Plates were incubated for 30 minutes at room temperature after the addition of cells. Lysis buffer containing cAMP-Tag was added to each well (10 μL/well) as per the manufacturer's protocol. Plates were then incubated from 45 minutes to overnight. Prior to reading, 10 μL of read buffer was added to each well, and the plate was read in a Sector 6000 plate imager. The signal was converted to cAMP concentration using a standard curve run on each plate.

recombinant human nicotinic acid receptor (NAR), sequence (Q8TDS4 whole entry): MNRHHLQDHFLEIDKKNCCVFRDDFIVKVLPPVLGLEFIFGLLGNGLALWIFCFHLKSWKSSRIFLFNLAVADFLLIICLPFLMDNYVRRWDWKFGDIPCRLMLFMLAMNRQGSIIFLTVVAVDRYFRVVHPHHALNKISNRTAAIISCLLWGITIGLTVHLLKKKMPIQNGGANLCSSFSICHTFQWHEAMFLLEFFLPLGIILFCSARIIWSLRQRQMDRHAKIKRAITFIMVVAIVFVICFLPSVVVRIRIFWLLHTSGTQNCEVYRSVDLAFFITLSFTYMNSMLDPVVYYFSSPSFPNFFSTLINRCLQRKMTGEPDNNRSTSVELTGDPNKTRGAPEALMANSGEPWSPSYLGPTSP

| SMILES | EC50 [nM] |
| --- | --- |
| COCCCc1cc(=O)oc2[nH]c(=O)[nH]c(=O)c12 [Compound 209] | 100 to 1000 |
| Cc1ccccc1-c1cc(CCCc2cc(=O)oc3[nH]c(=O)[nH]c(=O)c23)on1 [Compound 243] | 100 to 1000 |
| O=c1cc(CCCC2CC2)c2c(=O)n(C3CCC3)c(=O)[nH]c2o1 [Compound 224] | 0.001 to 100 |
| CCc1cc(=O)oc2nc(OCc3nn(-c4ccccc4)nc3C)[nH]c(=O)c12 [Compound 535] | 100 to 1000 |
| CCc1cc(=O)oc2nc(OCc3cc(C)nn3C)[nH]c(=O)c12 [Compound 529] | 100 to 1000 |
| CC1(CCc2cc(=O)oc3[nH]c(=O)[nH]c(=O)c23)CC1 [Compound 272] | 100 to 1000 |
| CCc1cc(=O)oc2nc(OCC3=Cc4ccccc4S3(=O)=O)[nH]c(=O)c12 [Compound 604] | 100 to 1000 |
| O=c1cc(CCC2CCCC2)c2c(=O)n(C3CCC3)c(=O)[nH]c2o1 [Compound 241] | 0.001 to 100 |
| CCOC(=O)NOc1nc2oc(=O)cc(CCC3CC3)c2c(=O)[nH]1 [Compound 696] | 100 to 1000 |
| CCCCc1cc(=O)oc2nc(OCC#CC(O)CC)[nH]c(=O)c12 (stereo not shown) [Compound 679] | 0.001 to 100 |
| CCc1cc(=O)oc2nc(OCc3ccccc3-n3ccnc3)[nH]c(=O)c12 [Compound 570] | 100 to 1000 |
| CCc1cc(=O)oc2nc(OCc3ccccc3-c3cccc(C)c3)[nH]c(=O)c12 [Compound 550] | > 1000 |
| CCc1cc(=O)oc2nc(OCc3cc(Br)no3)[nH]c(=O)c12 [Compound 649] | 100 to 1000 |
| CCc1cc(=O)oc2nc(OCCCOc3ccccc3)[nH]c(=O)c12 [Compound 596] | 100 to 1000 |
| CCc1cc(=O)oc2nc(OCc3ccc(Cl)c(C(F)(F)F)c3)[nH]c(=O)c12 [Compound 521] | 100 to 1000 |
| CC1CC1CCc1cc(=O)oc2[nH]c(=O)[nH]c(=O)c12 (stereo not shown) [Compound 295] | 100 to 1000 |
| CC(C)(C)CCCc1cc(=O)oc2[nH]c(=O)n(C3CCC3)c(=O)c12 [Compound 284] | 100 to 1000 |
| O=c1[nH]c(=O)c2c(CC3CCC4CC34)cc(=O)oc2[nH]1 (stereo not shown) [Compound 235] | 0.001 to 100 |
| CCc1cc(=O)oc2nc(OCCN3CCOC3=O)[nH]c(=O)c12 [Compound 620] | > 1000 |
| CCn1c(=O)[nH]c(=O)c2c(C)cc(=O)oc21 [Compound 291] | > 1000 |
| CCc1cc(=O)oc2nc(OCc3ccc(-c4ccncc4)cc3F)[nH]c(=O)c12 [Compound 574] | 100 to 1000 |
| CCc1cc(=O)oc2nc(OCc3ccncc3F)[nH]c(=O)c12 [Compound 625] | 100 to 1000 |
| CC(C)(C#N)CCCc1cc(=O)oc2[nH]c(=O)[nH]c(=O)c12 [Compound 288] | > 1000 |
| CCc1cc(=O)oc2nc(OCCN3CCCC3)[nH]c(=O)c12 [Compound 579] | > 1000 |

| SMILES | EC50 [nM] |
| --- | --- |
| CCc1cc(=O)oc2nc(OCc3ccc(Cl)cc3OC)[nH]c(=O)c12 [Compound 515] | 100 to 1000 |
| N#CC1(CCCc2cc(=O)oc3[nH]c(=O)[nH]c(=O)c23)CC1 [Compound 294] | 100 to 1000 |
| CCc1cc(=O)oc2nc(OCCOc3ccc(Br)cc3)[nH]c(=O)c12 [Compound 600] | > 1000 |
| CCc1cc(=O)oc2nc(OC[C@@H](OC)c3ccccc3)[nH]c(=O)c12 [Compound 618] | 100 to 1000 |
| CCOC(=O)NOc1nc2oc(=O)cc(CCC3CCC3)c2c(=O)[nH]1 [Compound 691] | 0.001 to 100 |
| CC(C)(C)CCCc1cc(=O)oc2[nH]c(=O)[nH]c(=O)c12 [Compound 262] | 0.001 to 100 |
| O=c1[nH]c(=O)c2c(Cc3cccc4ccccc34)cc(=O)oc2[nH]1 [Compound 265] | > 1000 |
| CCc1cc(=O)oc2nc(OC[C@H](C)OC)[nH]c(=O)c12 [Compound 632] | 100 to 1000 |
| O=c1[nH]c(=O)c2c(CCC3CCC3)c(-c3ccc(C(F)(F)F)cc3)c(=O)oc2[nH]1 [Compound 701] | > 1000 |
| CCc1cc(=O)oc2nc(OCc3ccc(C(F)(F)F)cn3)[nH]c(=O)c12 [Compound 545] | 100 to 1000 |
| CCOC(=O)NOc1nc2oc(=O)cc(CCC(C)C)c2c(=O)[nH]1 [Compound 694] | > 1000 |
| CC(=O)Nc1ccc(-c2c(CCC3CCC3)c3c(=O)[nH]c(=O)[nH]c3oc2=O)cc1 [Compound 704] | > 1000 |
| CC(=O)NCCCc1cc(=O)oc2[nH]c(=O)[nH]c(=O)c12 [Compound 237] | > 1000 |
| CC(C)CCc1cc(=O)oc2[nH]c(=O)n(C3CCC3)c(=O)c12 [Compound 245] | 0.001 to 100 |
| CCc1cc(=O)oc2nc(OCC#Cc3cccc(Cl)c3)[nH]c(=O)c12 [Compound 626] | 0.001 to 100 |
| CCn1c(=O)[nH]c2oc(=O)cc(C)c2c1=O [Compound 289] | > 1000 |
| O=c1[nH]c(=O)c2c(CCCOC3CCCCC3)cc(=O)oc2[nH]1 [Compound 287] | > 1000 |
| CCc1cc(=O)oc2nc(OCc3cc(C)nn3CC)[nH]c(=O)c12 [Compound 678] | 100 to 1000 |
| CCc1cc(=O)oc2nc(OCc3ccccc3-c3cccc(COC)c3)[nH]c(=O)c12 [Compound 549] | 100 to 1000 |
| CCc1cc(=O)oc2nc(OCCOc3cc(C(F)(F)F)ccn3)[nH]c(=O)c12 [Compound 602] | 100 to 1000 |
| CCc1cc(=O)oc2nc(OCC[Si](C)(C)C)[nH]c(=O)c12 [Compound 637] | 100 to 1000 |
| CCc1cc(=O)oc2nc(OCC3CCCCO3)[nH]c(=O)c12 (stereo not shown) [Compound 593] | > 1000 |
| CCc1cc(=O)oc2nc(OCc3cc(-c4ccccc4)oc3C)[nH]c(=O)c12 [Compound 542] | > 1000 |
| COc1ccc(-c2cc(CCCc3cc(=O)oc4[nH]c(=O)[nH]c(=O)c34)on2)cc1 [Compound 261] | 100 to 1000 |

Same assay, conditions: NA EC50 camp (nM), CHO cells expressing recombinant human NAR; forskolin-stimulated cAMP

| SMILES | EC50 [nM] |
| --- | --- |
| CCCC#CCOc1nc2oc(=O)cc(CC)c2c(=O)[nH]1 [Compound 557] | 0.001 to 100 |
| CCc1cc(=O)oc2nc(OCc3cccc(-c4cccc(C#N)c4)c3)[nH]c(=O)c12 [Compound 567] | 100 to 1000 |
| CCc1cc(=O)oc2nc(OCC#CC3CC3)[nH]c(=O)c12 [Compound 589] | 0.001 to 100 |
| CCc1cc(=O)oc2nc(OCC#CCCCO)[nH]c(=O)c12 [Compound 645] | 0.001 to 100 |

Same assay, conditions: NA EC50 camp, inhibition of forskolin-stimulated cAMP accumulation, CHO cells expressing recombinant human NAR

| SMILES | EC50 [nM] |
| --- | --- |
| CCCCCc1cc(=O)oc2nc(C(F)F)[nH]c(=O)c12 [Compound 743] | 212 |
| O=c1cc(CCC2CCC2)c2c(=O)[nH]c(C(F)F)nc2o1 [Compound 748] | 286 |

Same assay, conditions: inhibition of forskolin-stimulated cAMP accumulation, CHO cells expressing recombinant human NAR; read-out: NA EC50 camp

| SMILES | EC50 [nM] |
| --- | --- |
| CCc1cc(=O)oc2nc(OCc3ccccc3F)[nH]c(=O)c12 [Compound 74] | 183 |
| CCCCc1cc(=O)oc2[nH]c(=O)nc(OCCOC)c12 [Compound 787] | 682 |
| O=c1[nH]c(=O)c2c(CCC3CCCC3)cc(=O)oc2[nH]1 [Compound 125] | 1.2 |
| CCc1cc(=O)oc2nc(OCC#CC(C)OC)[nH]c(=O)c12 (stereo not shown) [Compound 723] | 296 |
| O=c1[nH]c(=O)c2c(CCC3CCCCC3)cc(=O)oc2[nH]1 [Compound 124] | 78.5 |
| O=c1cc(CCC2CCCC2)c2c(=O)n(C3CCC3)c(=O)[nH]c2o1 [Compound 241] | 13 |
| N#Cc1c(CCCC2CC2)c2c(=O)[nH]c(=O)[nH]c2oc1=O [Compound 759] | 2330 |
| O=c1cc(CCCC2CC2)c2c(=O)n(C(F)F)c(=O)[nH]c2o1 [Compound 814] | 161 |
| O=c1nc(OCCF)c2c(CCCC3CC3)cc(=O)oc2[nH]1 [Compound 824] | 91 |
| O=c1nc(OCC(F)F)c2c(CCC3CCC3)cc(=O)oc2[nH]1 [Compound 830] | 112 |
| CCCCc1cc(=O)oc2[nH]c(=O)n(OCC)c(=O)c12 [Compound 779] | 2850 |
| CCCCc1cc(=O)oc2[nH]c(=O)nc(OCF)c12 [Compound 788] | 38.5 |
| CCCCc1cc(=O)oc2c1c(=O)[nH]c(=O)n2O [Compound 805] | 2060 |
| COn1c(=O)[nH]c(=O)c2c(CCC3CCC3)cc(=O)oc21 [Compound 771] | 17 |
| CCCCc1cc(=O)oc2c1c(=O)[nH]c(=O)n2N1CCOCC1 [Compound 796] | > 10000 |
| CCn1c(=O)[nH]c2oc(=O)cc(CCC3CCCC3)c2c1=O [Compound 781] | 68 |
| CCOC(=O)NOc1nc2oc(=O)cc(CCC3CCC3)c2c(=O)[nH]1 [Compound 691] | 47.5 |
| CC(C)(C)CCCc1cc(=O)oc2[nH]c(=O)[nH]c(=O)c12 [Compound 262] | 49.9 |
| CCCCCc1cc(=O)oc2nc(CF)[nH]c(=O)c12 [Compound 744] | 128 |
| CCc1cc(=O)oc2[nH]c(=O)n(C3CCC3)c(=O)c12 [Compound 35] | 9 |
| CCCCCc1cc(=O)oc2nc(C(F)F)nc(OCc3ccc(OC)cc3)c12 [Compound 742] | 1070 |
| CCCCc1cc(=O)oc2[nH]c(=O)[nH]c(=O)c12 [Compound 102] | 31 |
